Results as given in PubChem BioAssay AID2060618 (Molecular Pharmacology Branch, DTP, NCI, 2025).
Values joined by “and” are separate entries in the source; they are usually repeats but may differ in a detail not shown here. Identical values can stand only once. One block for each molecule: values may come before it.

System: 454973-116-R2-J3-PDC spheroids, percent test/control viability
Assay: Anticancer human tumor 454973-116-R2-J3-PDC patient-derived pancreatic carcinoma cell line growth inhibition [CLK]
Details: spheroids with HUVEC and MSC; for viability, T/C: stronger effect = lower value; for IC50: curve of compound
Source text: A high-throughput screen of multi-cell type tumor spheroids was designed to identify active combinations of […] and targeted small molecules. Complex spheroids include a stromal component modeled by human endothelial cells (HUVEC) and fibroblasts modeled by human mesenchymal stem cells (MSCs). The concentration ranges selected for each drug and investigational agent were based upon clinically achievable concentrations if the clinical Cmax of the agent was known.
Compounds. The drugs and investigational agents: cirtuvivint (SM08502; NSC835563), CC-671 (NSC850746), vemurafenib (NSC761431), tapotoclax (NSC804041), sotorasib (NSC818433), adagrasib (NSC831453), MRTX-1133 (NSC836407), BAY2416964 (NSC825713), copanlisib (NSC816437), inavolisib (NSC800729), abemaciclib (NSC768073), osimertinib (NSC779217), entinostat (NSC756642), eltanexor (KPT-8602, NSC794443), venetoclax (NSC766270), ceralasertib (NSC777638), bortezomib (NSC756655), olaparib (NSC753686), talazoparib (NSC767125), alisertib (NSC759677), peposertib (NSC802822), gemcitabine (NSC613327), 5-fluorouracil (NSC19893), SN-38 (NSC673596), oxaliplatin (NSC266046), paclitaxel (NSC125973), and doxorubicin (NSC123127), were obtained from the National Cancer Institute (NCI) Developmental Therapeutics Program Chemical Repository. The FDA-approved anticancer drug set is available from the Developmental Therapeutics Program at https://dtp.cancer.gov/organization/dscb/obtaining/available plates.htm. […] The stock solutions were prepared in dimethyl sulfoxide (DMSO, Sigma-Aldrich, St. Louis, MO, cat. D2650), except for the platinum complexes which were prepared in saline (Quality Biological, Gaithersburg, MD, cat. 114-055-101), at 800-fold the tested concentration and stored at -70 degrees C prior to their use. All drugs and investigational agents were tested over a range starting from a high concentration at or near the clinical Cmax and decreasing in half-log increments. If the clinical Cmax for an agent had not been determined, the highest concentration tested was 10 microM.
Cell Culture. All cells were maintained in an incubator at 37 degrees C and 5% CO2 with 95% humidity. The PDC lines were cultured according to standard operating procedures established by the NCI PDMR. Briefly, all PDCs were thawed and cultured in Matrigel-coated flasks prepared with a working solution of 1X Ham's F-12 nutrient mix, without supplementation (Invitrogen, Waltham, MA, cat. 11765054), 100 U/mL penicillin-streptomycin (Invitrogen, cat. 15140122), and 2.5% Matrigel (Corning Inc., Corning, NY, cat. 354248) for the first three passages. The 947758-054-R-J2-PDC line was cultured in 6B/Colon 1A media, which includes advanced DMEM/F-12 (Thermo Fisher Scientific, cat. 12634028), 10 mM HEPES (Thermo Fisher Scientific, cat. 15630080), 1X GlutaMAX supplement (Thermo Fisher Scientific, cat. 35050061), 0.1 mg/mL primocin (InvivoGen, cat. ant-pm-2), 10% defined fetal bovine serum, heat inactivated (HyClone Laboratories Inc., cat. SH30070.03HI), 1.25 mM N-Acetyl-L-cysteine (Sigma-Aldrich, cat. A9165), 10 mM nicotinamide (Sigma-Aldrich, cat. N0636), 1X B-27 supplement (Thermo Fisher Scientific, cat. 17504044), 1X N-2 supplement (Thermo Fisher Scientific, cat. 17502048), and 10 microM Y-27632 dihydrochloride (Tocris Bioscience, cat. 1254). The 876862-298-R-J1-PDC was cultured in 6E media, which includes all 6B/Colon 1A media components plus 50% L-WRN conditioned media (ATCC, cat. CRL-3276), 50 ng/mL recombinant human EGF recombinant protein (hEGF; Thermo Fisher Scientific, cat. PHG0311), 10 ng/mL recombinant human fibroblast growth factor 10 (hGFG-10; PeproTech, cat. 100-26), 1 ng/mL recombinant human fibroblast growth factor 2 (hFGF-2; PeproTech, cat. 100-18B), and 1 µM prostaglandin E2 (PGE2; Tocris, cat. 2296). The 227483-062-R1-J1-PDC line was cultured in Panc media, containing all 6E components except hFGF-2, with the addition of 500 nM SB-431542 (Selleckchem, cat. S1067) and 10 nM gastrin (Tocris, cat. 3006). […]
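Further: spheroids exposed to compounds for 7 days before readout.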

IC50: > 300 nM
SMILES: C=CC(=O)Nc1cc(Nc2nccc(-c3cn(C)c4ccccc34)n2)c(OC)cc1N(C)CCN(C)C
viability, T/C (compound 0.000949 µM): 104% and 111% | viability, T/C (compound 0.003 µM): 107% and 98.9% | viability, T/C (compound 0.00949 µM): 97.8% and 95% | viability, T/C (compound 0.03 µM): 105% and 108% | viability, T/C (compound 0.0949 µM): 115% and 111% | viability, T/C (compound 0.3 µM): 109% and 100%

IC50: 88.4 nM and 72.4 nM
SMILES: COc1c(OCCCN2CCOCC2)ccc2c3n(c(=NC(=O)c4cnc(N)nc4)nc12)CCN3
viability, T/C (compound 0.00316 µM): 97.1% and 109% | viability, T/C (compound 0.01 µM): 98.4% and 90.9% | viability, T/C (compound 0.0316 µM): 99.2% and 75.2% | viability, T/C (compound 0.1 µM): 44% and 39% | viability, T/C (compound 0.316 µM): 23.6% and 20.3% | viability, T/C (compound 1 µM): 8.06% and 7.21%
